Results on 17 molecules are retold here after patent US6962976B2, “Human TREK2, a stretch- and arachidonic acid-sensitive K+ channel activated by inhalational anesthetics and niluzole” (Centre National de la Recherche Scientifique-CNRS, priority 2000, dated 2005).

One test deals with T1, TREK2 (Homo sapiens, UniProt P57789).
T1 construct: expressed in transfected cells; host or cells: COS cells
T1 sequence (P57789 1-538): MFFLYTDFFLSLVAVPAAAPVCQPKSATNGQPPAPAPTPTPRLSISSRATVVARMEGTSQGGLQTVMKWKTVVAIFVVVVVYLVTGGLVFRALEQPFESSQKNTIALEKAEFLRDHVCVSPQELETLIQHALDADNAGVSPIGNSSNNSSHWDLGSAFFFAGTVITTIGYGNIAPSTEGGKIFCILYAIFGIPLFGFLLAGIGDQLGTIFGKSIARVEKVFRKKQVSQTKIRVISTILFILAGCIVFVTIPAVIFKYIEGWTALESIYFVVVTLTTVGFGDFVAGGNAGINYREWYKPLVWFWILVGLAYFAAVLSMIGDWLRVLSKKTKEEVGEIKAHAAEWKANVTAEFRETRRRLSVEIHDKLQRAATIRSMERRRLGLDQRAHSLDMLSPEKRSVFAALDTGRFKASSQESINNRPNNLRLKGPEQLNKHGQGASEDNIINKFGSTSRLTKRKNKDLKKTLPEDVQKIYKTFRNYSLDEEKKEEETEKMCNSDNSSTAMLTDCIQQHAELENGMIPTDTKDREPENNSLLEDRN
Briefly: Whole-cell patch-clamp of TREK2 currents in transfected COS cells. It counts as cell-based. Conditions: for activation of TREK2 by fatty acids and lysophospholipids (in words): whole-cell current; for effect on TREK2 current in COS cells transfected with only TREK2: no receptor co-expressed. The procedure: For inside-out patch recordings, pipettes were filled with the EXT solution and the bathing solution was the INT solution buffered either at pH 7.3 or at pH 5.6 in the internal acidosis experiments. Cells were continuously superfused with a microperfusion system during the experiment (0.2 ml per min) done at room temperature. A RK400 patch-clamp amplifier was used for whole-cell and single-channel recordings (Bio-Logic, Claix, France). Single-channel data were low-pass filtered at 5 KHz and digitized at 50 KHz using a DAT recorder (Bio-Logic, Claix, France). pClamp software was used to analyze whole-cell data and Biopatch software (Bio-Logic) to analyze single-channel data.
Concentrations of volatile anesthetics were adjusted from saturated solutions (isoflurane, 15.3 mM; halothane, 17.5 mM and chloroform, 66.6 mM) in saline at room temperature (16). Mechanical stimulation was applied through an open loop pressure generating system and monitored at the level of the patch pipette by a calibrated pressure sensor (17).

A further test has as its target T2, TRAAK (Homo sapiens, UniProt Q9NYG8).
T2 sequence (Q9NYG8 1-393): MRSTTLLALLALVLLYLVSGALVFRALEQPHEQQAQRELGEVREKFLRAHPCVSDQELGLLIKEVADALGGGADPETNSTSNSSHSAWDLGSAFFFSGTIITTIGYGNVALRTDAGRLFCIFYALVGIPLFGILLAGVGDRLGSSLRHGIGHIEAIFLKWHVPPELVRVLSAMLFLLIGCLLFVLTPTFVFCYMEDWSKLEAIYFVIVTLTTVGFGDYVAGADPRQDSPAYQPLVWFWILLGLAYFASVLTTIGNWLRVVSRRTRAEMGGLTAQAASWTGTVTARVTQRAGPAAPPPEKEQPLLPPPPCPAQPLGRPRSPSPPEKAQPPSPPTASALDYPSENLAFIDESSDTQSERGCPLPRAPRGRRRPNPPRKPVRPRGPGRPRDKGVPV
Conditions: cited from earlier work.

A further test concerns the target T3, TREK1 (Homo sapiens, UniProt O95069).
T3 sequence (O95069 1-426): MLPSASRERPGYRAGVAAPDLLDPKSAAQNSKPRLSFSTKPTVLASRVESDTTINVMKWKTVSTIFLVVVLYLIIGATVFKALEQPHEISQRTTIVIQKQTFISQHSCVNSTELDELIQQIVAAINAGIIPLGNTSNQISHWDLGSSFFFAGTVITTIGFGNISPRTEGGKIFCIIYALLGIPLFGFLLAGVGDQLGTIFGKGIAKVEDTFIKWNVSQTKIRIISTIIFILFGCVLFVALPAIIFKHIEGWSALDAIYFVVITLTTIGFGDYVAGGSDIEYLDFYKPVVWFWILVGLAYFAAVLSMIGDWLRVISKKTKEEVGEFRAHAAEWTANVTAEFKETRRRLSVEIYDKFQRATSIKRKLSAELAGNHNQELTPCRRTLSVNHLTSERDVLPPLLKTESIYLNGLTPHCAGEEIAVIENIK
Conditions: cited from earlier work.

The test system of test [1] is TREK2 co-expressed with 5HT4sR. As for the experimental part: (§1) The voltage-clamp protocol consists of a voltage-ramp of 800 ms duration starting from a holding potential of −80 mV applied every 10 s. The current was monitored at +100 mV.
(§2) COS cells were seeded at a density of 20,000 cells per 35 mm dish, 24 h prior transfection. Cells were transiently transfected by the classical DEAE-dextran method with 0.2 μg of pIRES-CD8. TREK2 with or without mGluR1, mGluR2 or 5HT4sR expression vectors (a generous gift of Drs J P Pin and A Dumuis, Montpellier, France).
(§3) Transfected cells were visualized 48 h after transfection using the anti-CD8 antibody-coated beads method.
(§4) TREK2 was co-expressed with 5HT4sR, a Gs-coupled receptor. […] A third type of G-protein coupled receptor was co-expressed with TREK2. This receptor is the Gq-coupled mGluR1 receptor. […] The Gq-protein is commonly associated with activation of phospholipase C and the consequent production of diacylglycerol (DAG) and inositol 1,4,5-triphosphate (IP 3). Ultimately, DAG leads to activation of PKC and IP 3 to an increase of intracellular Ca^2+.

For test [2], the system named is TREK2 co-expressed with mGluR2. Description: Whole-cell TREK2 current, TREK2 co-expressed with Gi-coupled mGluR2 in COS cells. In kind it is cell-based, human. As for the experimental part: as §1, §2, §3, §4
The mark [3] stands for this setting: 1 mM, 0 mV (voltage given for halothane only).

As for `CCCCCCCCCCCCCCCC(=O)O` [palmitic acid], at TREK2, the “activation of TREK2 by fatty acids and lysophospholipids (in words)” value (shortened to “activation of TREK2”) is on record as “not”. Consider `Nc1nc2ccc(OC(F)(F)F)cc2s1` [riluzole], for which the “effect on TREK2 current (in words)” value on TREK2 (current monitored at +100 mV) is reported as “activated”. The “time course of TREK2 activation (in words)” value on TREK2 (followed by a decrease of the activity corresponding to an inhibition) is given as “transient”. Also, the “activation of TRAAK (in words)” value at TRAAK is “permanently activated”. For the same molecule, the “activation of TREK1 (in words)” value on TREK1 was “transiently activated”. `[Ca+2]` [Ca^2+]: the “inhibition of TREK2 (in words)” value against TREK2 (1 μM in the recording pipette) is on record as “nor the addition of Ca^2+ in the recording pipette (1 μM) were able to induce an inhibition”.

`ClC(Cl)Cl` [chloroform]: the “fold increase of TREK2 current” value at TREK2 (setting [3]) is reported as 1.8±0.1 fold increase. The “relative efficiency of anesthetics on TREK1” value on TREK1 (1 mM) was “more effective than halothane and isoflurane”.

As to `CCCCC/C=C\C/C=C\C/C=C\C/C=C\CCCC(=O)O` [arachidonic acid], the “fold increase of TREK2 current” value on TREK2 (10 μM, at 0 mV) was found to be 8.4±1.9 fold increase.

Turning to `C=C[C@H]1C[N@@]2CC[C@H]1C[C@@H]2[C@@H](O)c1ccnc2ccc(OC)cc12` [Quinidine], at 100 µM the inhibition on TREK2 (COS, 100 μM) was 50%.

In the case of lysophosphatidylinositol, at TREK2 (10 μM, at 0 mV), the “fold increase of TREK2 current” value was 5.1±0.6 fold increase. Turning to `FC(F)OC(Cl)C(F)(F)F` (centres unmarked) [isoflurane], the “fold increase of TREK2 current” value on TREK2 (setting [3]) is given as 1.9±0.1 fold increase. On to `NCCc1c[nH]c2ccc(O)cc12` [5-HT, 5-hydroxytryptamine], for which the “effect on TREK2 current in COS cells transfected with only TREK2” value at TREK2 was “No effect”. Moreover, the “effect on TREK2 activity after receptor activation” value in test [1] was “decrease of TREK2 activity”. Turning to lysophosphatidylcholine, the “activation of TREK2” value on TREK2 is recorded as “activated”. Take `[Ba+2]` [Ba^2+]: the “sensitivity of TREK2 currents” value on TREK2 (1 mM) is on record as “insensitive”. Take `CCCCCCCCCCCCCC(=O)O[C@@H]1[C@@H](C)[C@@]2(O)[C@@H](C=C(CO)C[C@]3(O)C(=O)C(C)=C[C@@H]23)[C@@H]2C(C)(C)[C@]12OC(C)=O` [PMA]: the “inhibition of TREK2 (in words)” value against TREK2 (100 nM) is recorded as “neither the application of the PKC-activator PMA (100 nM) nor the addition of Ca^2+ in the recording pipette (1 μM) were able to induce an inhibition”. In the case of `CC[N+](CC)(CC)CC` [tetraethylammonium], on TREK2 (10 mM), the “sensitivity of TREK2 currents” value is “insensitive”. As for `FC(F)(F)C(Cl)Br` (centres unmarked) [halothane], the “fold increase of TREK2 current” value on TREK2 (0.25 mM, at +100 mV, n=10) is given as 1.4±0.1 fold increase; at TREK2 (0.5 mM, at +100 mV, n=10), 2.6±0.3 fold increase; on TREK2 (setting [3]) it was 2.3±0.3 fold increase.

For `N[C@@H](CCC(=O)O)C(=O)O` [glutamate], the “effect on TREK2 current in COS cells transfected with only TREK2” value on TREK2 is listed as “No effect”. In addition, in test [2], the “effect on TREK2 activity after receptor activation” value is recorded as “stimulation of TREK2 activity” and the “time to reverse the TREK2 increase after washing” value is “more than 10 minutes”. With `CCCCC/C=C\C/C=C\CCCCCCCC(=O)O` [linoleic acid], at TREK2, the “activation of TREK2” value is reported as “activated”. With `Nc1ncnc2c1nc(Sc1ccc(Cl)cc1)n2[C@@H]1O[C@@H]2COP(=O)(O)O[C@H]2[C@H]1O` [CPT-cAMP], the “inhibition of TREK2 activity” value at TREK2 (500 μM, at 0 mV, n=8) is recorded as 50±5%.
